# Assays:
# [1] = tested on: Wistar rats; test: ABR threshold shifts, noise induced hearing loss (NIHL); type: in vivo, rat
# Method: Male Wistar rats (150-250 gm) were used for this study under an animal care protocol approved by the Laboratory and Animal Care and Use Committee (SIU School of Medicine). Pre-treatment ABRs were performed. Animals were then treated according to the experimental paradigm. Prevention strategy: consisted of administration of ETA either intra-tympanic ally (IT) (250 μg/50 μl) or subcutaneously (sc) (3 mg/kg) or PBS (IT-50 μl or sc-1 ml) either 3 days or 7 days prior to noise exposure (NE).
# Animals were exposed to noise (NE), and then provided ETA treatments either IT or SC at either 2 h or 24 h post noise injury. Post treatment ABR thresholds were determined at 21 days post noise exposure and cochleae were excised for morphological, molecular and biochemical studies. Cochleae used for RNA preparations were flushed immediately with RNA later and kept in RNA later for 24 h at 4° C. Those used for immunohistochemical studies were perfused and fixed with 4% paraformaldehyde, while those used for Scanning electron microscopy (SEM) were perfused and fixed with 2.5% glutaraldehyde. Cochleae used for whole mounts were decalcified for 7-10 days in 100 mM EDTA at room temperature.
# Male Wistar rats were exposed to octave band noise at 122 dB centered at 16 kHz for 1 h under isofluorane anesthesia, with the 3 inch silicon tubes attached to the high frequency transducer resting in the middle ear cavity. This exposure typically results in a 30-50 dB temporary threshold shift (measured as an immediate pre-to-post noise exposure shift in ABR thresholds) across all frequencies; with slightly more elevation at those frequencies around 16 kHz and 20-40 dB permanent threshold shift measured at 21 days post noise exposure at all frequencies. Acoustic stimuli are calibrated using a cloth model rat and a Bruel & Kjaer Pulse System with a ½ inch free-field microphone (B&K model 4191). Baseline noise levels in the test chamber (with background test noise turned off) are typically measured below 20 dB SPL in the 4-40 kHz range.
# Pre-treatment ABR thresholds were determined using the high frequency Intelligent Hearing Systems (IHS) on naive rats prior to any treatment or noise exposure for each ear. Animals were tested with a stimulus intensity series that was initiated at 0 dB sound pressure level (SPL) and reached a maximum at 90 dB SPL. The stimulus intensity levels were increased in 10 dB increments, and the evoked ABR waveforms were observed on a video monitor. The auditory stimuli included tone bursts at 8, 16, and 32 kHz with a 10 msec plateau and a 1 msec rise/fall time presented at a rate of 5/sec. Threshold was defined as the lowest intensity capable of evoking a reproducible, visually detectable response with two distinct waveforms and minimum amplitude of 0.5 μV.
# Preconditioning of the TRPV1 receptor in the rat cochlea by oral administration of capsaicin is shown here to protect from NIHL. Male Wistar rats weighing 200-250 gms were used. ABRs from naïve rats were recorded. Rats were then treated with oral phosphate buffered saline (PBS—1 ml) or capsaicin (1 ml of 20 mg/ml) starting 24 hrs prior to NE, on the day of NE, and 24 hrs post NE. The final ABRs were recorded 21 days post NE. Cochleae were collected for various biochemical tests and immunohistochemistry. At least 6 animals were used per treatment group. NE caused an ABR threshold shift of 21.6±1.7, 35.5±1.9 and 43.9±2.3 dB threshold shift at 8, 16 and 32 kHz respectively. Oral capsaicin treatment completely protects from NIHL (3.9±1.4, 6.1±1.8 and 8.9±2.1 dB threshold shift at 8, 16 and 32 kHz respectively), there is no significant change in ABR threshold shift compared to control. […] Statistical significance was calculated using one way ANOVA with Tukey's post-hoc analyses, p<0.05 (FIG. 16.A.).
# ABR measurements were conducted in naïve male Wistar rats. […]
# [2] = tested on: UB/OC-1 cells; test: Western blot of STAT1, STAT3 and JAK2 phosphorylation; type: cell-based, mouse
# [3] = tested on: UB/OC1 cells; test: Bax/Bcl-2 ratio in UB/OC1 cells; type: cell-based, mouse
# [4] = tested on: Wistar rats; details: capsaicin TT 50 μl of 0.1 μM; Mukherjea et al., 2011; cited from earlier work
# [5] = tested on: UMSCC-10b cells; test: SCID mouse xenograft model; type: in vivo
# Method: SCID mice (from Envigo, 5-6 weeks of age) were injected subcutaneously with 1.5×10^6 mycoplasma-free UMSCC 10B cells in one flank. […] At the time of each treatment, tumor volumes were calculated based on the formula: volume=width2×(length/2) [Jajoo et al.]. Mice were killed 24 h after the eleventh treatment. All procedures were performed in accordance with relevant guidelines and regulations of SIU School of Medicine.
# [6] = tested on: Wistar rats; test: ABR threshold shifts, cisplatin-induced hearing loss; type: in vivo, rat
# Method: Adult male Wistar rats (200-350 g) (from Envigo) were used for this study. Rats were housed in a temperature controlled room with a twelve hour light/dark cycle. They had free access to commercial food and water provided by the SIU Laboratory Animal Care facility.
# Prior to experiments, rats were anesthetized with ketamine HCl/xylazine mixture (24.6/3 mg/kg) and then placed in a sound-attenuation chamber (Industrial Acoustic Company, Inc.). Body temperature of the rats was maintained at 37° C. with an animal blanket system. Pretreatment auditory brainstem responses (ABRs) was performed using an IHS-High-frequency System (Intelligent Hearing Systems, Miami, FL). The rats were exposed to acoustic stimuli via HIS transducers that were directly placed at the entrance of the ear canal. ABR thresholds were obtained for 5 ms duration tone bursts at 8, 16 and 32 kHz at a rate of 50/s. Thresholds were determined by visually produced lowest intensity evoked potentials (EP) that progressed in 10 dB steps. Evoked potentials (Eps) were amplified to 200,000×, and were band pass filtered (100-3000 Hz) and averaged over 1024 sweeps [Mukherjea et al., 2010].
# At the end of auditory testing, the anesthetized animals were decapitated and the cochlea harvested. The SIU Laboratory Animal Care and Use Committee approved all animal procedures.
# Male Wistar rats were anesthetized using ketamine/xylazine cocktail. The tympanic membrane was punctured as described in [Mukherjea et al., 2010].
# [7] = oral capsaicin 24 hrs prior, day of and 24 hrs post NE, 21 days post NE
# [8] = capsaicin 2.5 μM 30 min and/or cisplatin 2.5 μM 45 min (FIG. 5.E)
smiles,measurement,setting,value
"COc1cc(CNC(=O)CCCC/C=C/C(C)C)ccc1O [capsaicin, 8-methyl-N-vanillyl-trans-6-nonenamide]",Wave 1 amplitude versus sound intensity,"[1]; capsaicin 5 mg/kg oral, ETA 1 mg/kg, noise exposure (FIG. 18.B)",partial restoration
same,NE threshold shift,"[1]; intra-tympanic or oral capsaicin, 21 days after NE",abrogated
same,ABR threshold shift at 8 kHz,[1]; [7],3.9±1.4 dB
same,ABR threshold shift at 16 kHz,[1]; [7],6.1±1.8 dB
same,ABR threshold shift at 32 kHz,[1]; [7],8.9±2.1 dB
same,ABR threshold shift at 8 kHz,"[1]; oral capsaicin alone, no NE",1±1.1 dB
same,ABR threshold shift at 16 kHz,"[1]; oral capsaicin alone, no NE",1±1.1 dB
same,ABR threshold shift at 32 kHz,"[1]; oral capsaicin alone, no NE",3±1.6 dB
same,JAK2 phosphorylation,"[2]; 2.5 μM, time course",increased activation
same,p-STAT1,[2]; [8],135.4±4%
same,p-STAT3,[2]; [8],173±4%
same,p-STAT3/p-STAT1 ratio peak value,"[2]; capsaicin 2.5 μM, reached in 45 min",~130%
same,time of peak STAT1 Ser^727 phosphorylation,"[2]; capsaicin 2.5 μM, returns to baseline by 120 min",45 min
same,p-STAT3/p-STAT1 ratio,[2]; of control (FIG. 5.F),128±4.1%
same,Bax/Bcl-2 ratios,[3],1.1±0.2
same,duration of transient ABR threshold shift,[4],24 h
same,cisplatin tumor growth curves,[5]; oral capsaicin 0.5 mg/kg + cisplatin 2 mg/kg ip,shifted the cisplatin tumor growth curves to the right
same,"tumor growth (volume, size, weight)",[5]; single agent: cisplatin 2 mg/kg ip or oral capsaicin 0.5 mg/kg,"decreased tumor size and weight, but not significantly"
same,ABR threshold shifts produced by cisplatin,"[6]; TT-capsaicin 50 μl of 0.1 μM 24 h prior to cisplatin 11 mg/kg ip, 72 h, 8, 16 and 32 kHz",significantly reduced ABR threshold shifts
same,ABR thresholds,"[6]; TT-capsaicin alone, 72 h, vs TT vehicle",did not significantly alter ABR thresholds
same,ABR threshold,"[6]; capsaicin alone by trans-tympanic injection or oral gavage, 72 h",did not significantly alter ABR threshold
same,protection against cisplatin-induced ABR threshold shifts,[6]; oral capsaicin 5 mg/kg 24 h prior to cisplatin,did not protect
same,cisplatin ABR threshold shift,[6]; oral capsaicin 20 mg/kg 24 h prior to cisplatin (FIG. 11.B),abrogated
same,protection against cisplatin-induced ABR threshold shifts,[6]; oral capsaicin 10 or 20 mg/kg 24 h prior to cisplatin,Significant protection

# From patent US12162935B2, “Regimens, compositions and methods with capsaicin and TNF-alpha inhibitor” (priority 2018, dated 2024)
